Series [1] can be described thus: Beagle pharmacokinetic study (ig/sc/iv, plasma LC/MS/MS). Particulars: for AUC(0-t) / half-life / Cmax: dog, plasma; for AUC(0-t): read-out: Area under curve AUC0-72; for half-life: read-out: Half life T½ (converted); for Cmax: read-out: Plasma concentration Cmax. Type of series: in vivo, beagles. The protocol: Taking beagles as test animals, and the drug concentrations in dog plasma at various times after intragastric administration (ig)/subcutaneous injection (sc)/intravenous injection (iv) administration of the compound of Example 1-1 and Positive Control Example 1 were measured by using LC/MS/MS method. The pharmacokinetic performance in beagles of the compounds of the present disclosure was studied and the pharmacokinetic profile thereof was evaluated.
18 non-naïve beagles (999M-004, medicilon) with 7-12 kg, every 3 of which were in one group.
The intragastric administration group: a certain amount of the compounds was weighed, ethanol with a volume of 5% of the final volume, 20% PG, 45% PEG300 and 30% deionized water were added (the pH was adjusted to be about 2 with 0.01 N HCl), and the reaction mixture was subjected to ultrasonic stirring for uniform mixing to give an administration solution at a concentration of 0.8 mg/mL.
The subcutaneous injection administration group: a certain amount of the compounds was weighed, 2% aqueous poloxamer 188 solution with a proper volume was added, and the reaction mixture was subjected to ultrasonic stirring for uniform mixing to give a suspension administration solution at a concentration of 200 mg/mL.
The intravenous administration group: a certain amount of the compounds was weighed, 5% volume of DMSO, 30% PG, 30% PEG400 and 35% volume of normal saline were added, and the reaction mixture was subjected to vortex ultrasonic stirring for uniform mixing to give an administration solution at a concentration of 0.5 mg/mL.
Beagles were intragastrically administered with the compounds after fasting overnight, at a dose of 4.0 mg/kg and a volume of 5.0 mL/kg.
Beagles were subcutaneously injected with the compounds after fasting overnight, at a dose of 6.0 mg/kg and a volume of 0.03 mL/kg.
Beagles were intravenously injected with the compounds after fasting overnight, at a dose of 1.0 mg/kg and a volume of 2 mL/kg.
Beagles were intragastrically administered with the compound of Example 1-1/Positive Control Example 1, and 1 mL of blood was collected from the orbit before administration and at 0.25 h, 0.5 h, 1.0 h, 2.0 h, 4.0 h, 6.0 h, 8.0 h, 12.0 h, 24 h, 32 h, 48 h, 56 h and 72 h after administration, respectively, and placed in EDTA-K2 anticoagulant blood collection tubes, plasma was centrifuged (centrifugal force: 2200 g, centrifugation time: 10 min, 2-8° C.), and stored at −80° C., and food intake was resumed 3 h after administration.
The compound of Example 1-1/Positive Control Example 1 was subcutaneously injected to beagles, and 1 mL of blood was collected before administration and at 1.0 h, 3.0 h, 8.0 h, 24 h, 48 h, 72 h, 96 h, 168 h, 336 h, 432 h and 504 h after administration, respectively, and placed in EDTA-K2 anticoagulant blood collection tubes, plasma was centrifuged (centrifugal force: 2200 g, centrifugation time: 10 min, 2-8° C.), and stored at −80° C., and food intake was resumed 3 h after administration.
The content of the compound to be tested in the plasma of beagles was determined after the intragastric administration of the compounds at different concentrations: 20 μL of the plasma in beagles at each time after administration was taken, 200 μL of methanol containing internal standard (100 ng/mL) was added, the reaction mixture was subjected to vortex mixing for 1 min, and centrifuged for 7 min (centrifugal force: 18000 g), and 1 μL of the supernatant was taken from the plasma sample for LC/MS/MS analysis. […]

Series [2] in a line: Monkey pharmacokinetic study (iv, plasma LC/MS/MS). In kind it is in vivo, cynomolgus monkeys. To be noted: cynomolgus monkey, intravenous injection, 1 mg/kg. The method, then: Taking cynomolgus monkeys as test animals and the drug concentrations in monkey plasma at various times after intravenous injection (iv) of the compounds of Example 1-1 and Positive Control Example 1 were measured by using LC/MS/MS method. The pharmacokinetic performance in cynomolgus monkeys of the compounds of the present disclosure was studied and the pharmacokinetic profile thereof was evaluated.
6 non-naïve cynomolgus monkeys (999M-004, medicilon) with 2-5 kg, every 3 of which were in one group.
A certain amount of the compounds was weighed, 5% volume of DMSO, 30% PG, 30% PEG400 and 35% volume of normal saline were added, and the reaction mixture was subjected to vortex ultrasonic stirring for uniform mixing to give a clean administration solution at a concentration of 0.5 mg/mL.
Monkeys were intravenously injected with the compounds after fasting overnight, at a dose of 1.0 mg/kg and a volume of 2 mL/kg.
The compound of Example 1-1/Positive Control Example 1 was intravenously injected to monkeys, and 1 mL of blood was collected through femoral vein before administration and at 5 min, 0.25 h, 0.5 h, 1.0 h, 2.0 h, 4.0 h, 8.0 h, 12.0 h, 24 h, 32 h, 48 h, 56 h and 72 h after administration, respectively, and placed in EDTA-K2 anticoagulant blood collection tubes, plasma was centrifuged (centrifugal force: 2200 g, centrifugal time: 10 min, 2-8° C.), and stored at −80° C., and food intake was resumed 3 h after administration.

The mark [3] stands for this setting: po, intragastric administration, 4 mg/kg.
Setting [4] is: sc, subcutaneous injection, 6 mg/kg.

Read-outs that look alike come from different tables or passages of the source.

Take `CC(C)(C#Cc1ccc(-c2ccc(Cl)c3c(NS(C)(=O)=O)nn(CC(F)(F)F)c23)c([C@H](Cc2cc(F)cc(F)c2)NC(=O)Cn2nc(C(F)(F)F)c3c2C(F)(F)[C@@H]2C[C@H]32)n1)S(C)(=O)=O` [Positive Control Example 1, N—((S)-1-(3-(4-chloro-3-(methylsulfonamido)-1-(2,2,2-trifluoroethyl)-1H-indazol-7-yl)-6-(3-methyl-3-(methylsulfonyl)but-1-yn-1-yl)pyridin-2-yl)-2-(3,5-difluorophenyl)ethyl)-2-((3bS,4aR)-5,5-difluoro-3-(trifluoromethyl)-3b,4,4a,5-tetrahydro-1H-cyclopropa[3,4]cyclopenta[1,2-c]pyrazol-1-yl)acetamide, reference compound]: the AUC(0-t) in series [1] (intravenous injection, 1 mg/kg) came to 14700 ng·h/mL; in series [1] (setting [3]), 11200 ng·h/mL; in series [1] (setting [4]), 17700 ng·h/mL; in series [2] (plasma, read-out: Area under curve AUC0-72), 2130 ng·h/mL. Also, the half-life is 13.7 h in series [1] (intravenous injection, 1 mg/kg) and 23 h in series [1] (setting [3]). Further, the Cmax was 1110 ng/mL in series [1] (intravenous injection, 1 mg/kg); 414 ng/mL in series [1] (setting [3]); 54.6 ng/mL in series [1] (setting [4]). The “Clearance CLz/F” value in series [1] (intravenous injection, 1 mg/kg) came to 1.1 mL/min/kg; in series [2], 7.8 mL/min/kg.

For the origin of these results see patent US12428396B2, “Fused pyridine ring derivative, preparation method therefor, and pharmaceutical use thereof” (priority 2019, dated 2025).
